Two compounds from patent US7160892B2, “Pyrimidone compounds and pharmaceutical compositions containing the same” (Eisai Co., Ltd., priority 2001, dated 2007) can be followed below.

Assay [1] deals with T1, human adenosine A2B receptor (Homo sapiens, UniProt P29275).
T1 construct: expressed in transfected cells; host or cells: CHOK1 cells
T1 sequence (P29275 1-332): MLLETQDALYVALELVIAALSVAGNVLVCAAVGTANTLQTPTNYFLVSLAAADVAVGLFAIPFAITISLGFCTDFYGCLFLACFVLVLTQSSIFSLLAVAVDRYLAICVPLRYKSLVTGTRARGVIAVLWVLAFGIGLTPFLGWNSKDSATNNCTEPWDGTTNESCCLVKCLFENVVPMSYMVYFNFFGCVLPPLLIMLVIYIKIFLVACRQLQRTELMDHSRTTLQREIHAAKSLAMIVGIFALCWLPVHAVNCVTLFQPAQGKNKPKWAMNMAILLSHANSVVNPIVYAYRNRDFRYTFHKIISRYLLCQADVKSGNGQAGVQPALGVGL
Description: Inhibition of NECA-stimulated production of cAMP in adenosine A2B receptor-expressing cells. The format is cell-based. The note with it: read-out: I C50(nM) A2B. The method, then:
Experiment of Inhibition of NECA-Stimulated Production of cAMP in Adenosine A2B Receptor-Expressing Cells
CHOK1 cells where human adenosine A2B receptor had been expressed in excess were plated onto a 24-well plate at a density of 1.5×10^5 cells/well, cultured overnight, and used in the experiment. […] That is, the adhering cells were washed twice with 2 ml/well Krebs-Ringer buffer solution (containing 0.1% BSA; pH 7.4) and pre-incubated for 30 minutes in a volume of 0.5 ml/well. […] After pre-incubation for 15 minutes, the reaction was terminated with 0.1 N HCl in a volume of 300 μl/well. Measurement of intracellular cAMP was carried out using a cAMP enzyme immunoassay kit produced by Amersham.

For assay [2], the target named is T2, adenosine A2A receptor (Homo sapiens, UniProt P29274).
T2 construct: purchased Receptor Biology Inc
T2 sequence (P29274 whole entry): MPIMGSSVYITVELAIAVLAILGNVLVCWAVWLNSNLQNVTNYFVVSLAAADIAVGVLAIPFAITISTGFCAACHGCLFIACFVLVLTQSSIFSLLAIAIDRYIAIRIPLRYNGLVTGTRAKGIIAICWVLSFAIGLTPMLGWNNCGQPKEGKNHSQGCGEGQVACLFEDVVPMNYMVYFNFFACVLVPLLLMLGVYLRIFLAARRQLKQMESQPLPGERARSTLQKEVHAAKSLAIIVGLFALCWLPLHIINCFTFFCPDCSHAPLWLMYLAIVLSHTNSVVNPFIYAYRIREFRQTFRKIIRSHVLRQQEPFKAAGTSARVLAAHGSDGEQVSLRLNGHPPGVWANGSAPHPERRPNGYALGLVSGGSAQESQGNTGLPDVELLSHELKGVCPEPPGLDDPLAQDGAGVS
Description: Measurement of the binding ability to adenosine A2A receptor (3H-CGS21680 displacement, membrane sample). The following applies: read-out: K1(nM) A2A. The protocol:
Measurement of the Binding Ability to Adenosine A2A Receptor
An experiment of inhibition of binding to adenosine A2A receptor was conducted using a membrane sample (Receptor Biology Inc.) where an adenosine A2A receptor cDNA was expressed in excess. This membrane sample was suspended at a protein concentration of 22.2 μg/ml in 20 mM HEPES buffer, pH 7.4 (10 mM MgCl2 and 100 mM NaCl). To 0.45 ml of this membrane sample suspension were added 0.025 ml of 500 nM tritium-labeled 2-p-[2-carboxyethyl]phenetylamino-5′-N-ethylarboxyamide adenosine (^3H-CGS21680, from NEN) and 0.025 ml of test compound. […] Thereafter, the glass fiber filter was transferred to a vial, scintillator was added thereto, and the radioactivity on the filter was measured by a liquid scintillation counter. […]
Here, the total binding means ^3H-CGS21680-bound radioactivity in the […] of the test compound; the nonspecific binding means ^3H-CGS21680-bound radioactivity in the presence of 100 μM RPIA; and the binding in the […] of the test compound means ^3H-CGS21680-bound radioactivity in the […] of the test compound at predetermined concentrations. The inhibition constant (Ki value) in the table was determined from the formula of Cheng-Prusoff.

Assay [3] addresses T3, human adenosine A1 receptor (Homo sapiens, UniProt P30542).
T3 construct: expressed in transfected cells; host or cells: CHOK1 cells (membrane sample)
T3 sequence (P30542 1-326): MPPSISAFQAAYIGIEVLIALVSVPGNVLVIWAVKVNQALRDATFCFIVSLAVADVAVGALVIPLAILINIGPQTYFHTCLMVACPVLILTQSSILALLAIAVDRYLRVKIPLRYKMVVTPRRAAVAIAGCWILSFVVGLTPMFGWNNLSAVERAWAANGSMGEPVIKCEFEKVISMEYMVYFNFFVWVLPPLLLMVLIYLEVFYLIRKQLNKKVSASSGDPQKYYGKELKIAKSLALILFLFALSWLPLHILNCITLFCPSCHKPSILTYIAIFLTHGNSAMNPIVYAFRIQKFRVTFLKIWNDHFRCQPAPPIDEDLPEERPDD
Description: Measurement of the binding ability to adenosine A1 receptor (3H-CCPA displacement, CHOK1 membranes). The following applies: read-out: K1(nM) A1. The method, then: Measurement of the Binding Ability to Adenosine A1 Receptor
A human adenosine A1 receptor cDNA was expressed in excess in CHOK1 cells, and this membrane sample was suspended at a protein concentration of 66.7 μg/ml in 20 mM HEPES buffer, pH 7.4 (10 mM MgCl2, 100 mM NaCl). To 0.45 ml of this membrane sample suspension were added 0.025 ml of 60 nM tritium-labeled chlorocyclopentyl adenosine (^3H—CCPA, from NEN Ltd.) and 0.025 ml of test compound. This mixture was left at 30° C. for 120 minutes, filtered rapidly under suction through a glass fiber filter (GF/B, from Whatman), and immediately washed twice with 5 ml of 50 mM water-cooled Tris-HCl buffer. Thereafter, the glass fiber filter was transferred to a vial, scintillator was added thereto, and the radioactivity on the filter was measured by a liquid scintillation counter. […]
In the above formula, the total binding means ^3H-CCPA-bound radioactivity in the absence of the test compound; the nonspecific binding means ^3H-CCPA-bound radioactivity in the presence of 100 μM RPIA ([R]-[1-methyl-2-phenylethyl] adenosine); and the binding in the presence of the test compound means ^3H-CCPA-bound radioactivity in the presence of the test compound at predetermined concentrations. The inhibition constant (Ki value) in the table was determined from the formula of Cheng-Prusoff.

For the compound `Nc1nc(-c2ccco2)c(-c2ccncc2)c(=O)[nH]1` [Example 2, 2-Amino-6-(2-furyl)-5-(4-pyridyl)-3,4-dihydro-4-pyrimidinone], the IC50 in assay [1] is 256 nM. The Ki is 345 nM in assay [2] and 1110 nM in assay [3].

Consider `Cn1c(N)nc(-c2ccco2)c(-c2ccncc2)c1=O` [Example 7, 2-Amino-6-(2-furyl)-3-methyl-5-(4-pyridyl)-3,4-dihydro-4-pyrimidinone], for which, in assay [1], the IC50 stood at 71 nM. The Ki came to 493 nM in assay [2] and 966 nM in assay [3].
